Like-named read-outs stand apart in the source and are kept apart here.
Tests used:
[1] = tested on: Staphylococcus aureus FDA 209P; experiment: MIC by serial dilution method on agar plate; type: cell-based
Excerpt: (§1) The microorganisms were used in a concentration of 1×10^8 cells/ml (O.D. 660 mμ, 0.07-0.16) and 1×10^6 cells/ml (100 folds dilution).

[2] = tested on: Acinetobacter calcoaceticus AC-54; experiment: MIC by serial dilution method on agar plate; type: cell-based
Excerpt: (§2) Chemotherapy, 22, 1126-1128 (1974)]. The microorganisms were used in a concentration of 1×10^8 cells/ml (O.D. 660 mμ, 0.07-0.16) and 1×10^6 cells/ml (100 folds dilution).

[3] = tested on: Bacillus subtilis ATCC 6633; experiment: MIC by serial dilution method on agar plate; type: cell-based
Excerpt: as §2

[4] = tested on: Escherichia coli NIHJ JC-2; experiment: MIC by serial dilution method on agar plate; type: cell-based
Excerpt: as §2

[5] = tested on: Escherichia coli No. 29; experiment: MIC by serial dilution method on agar plate; type: cell-based
Excerpt: as §2

[6] = tested on: Klebsiella pneumoniae NCTC 9632; experiment: MIC by serial dilution method on agar plate; type: cell-based
Excerpt: as §2

[7] = tested on: Proteus inconstans IFO 12930; experiment: MIC by serial dilution method on agar plate; type: cell-based
Excerpt: as §2

[8] = tested on: Proteus morganii IID Kono; experiment: MIC by serial dilution method on agar plate; type: cell-based
Excerpt: as §2

[9] = tested on: Pseudomonas aeruginosa ATCC 10145; experiment: MIC by serial dilution method on agar plate; type: cell-based
Excerpt: as §2

[10] = tested on: Pseudomonas aeruginosa E-2; experiment: MIC by serial dilution method on agar plate; type: cell-based
Excerpt: as §2

[11] = tested on: Serratia marcescens IFO 12648; experiment: MIC by serial dilution method on agar plate; type: cell-based
Excerpt: as §2

[12] = tested on: Streptococcus faecalis IFO 12580; experiment: MIC by serial dilution method on agar plate; type: cell-based
Excerpt: as §2

[13] = tested on: Staphylococcus pyrogens IID S-23; experiment: MIC by serial dilution method on agar plate; type: cell-based
Excerpt: as §1

[14] = Absorption by oral administration in monkey (plasma concentration, thin layer cup bio-assay); type: in vivo; details: 100 mg/kg;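 also: plasma concentration in γ/ml (µg/mL) rather than the printed ng/mL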
Method: The test compounds were dissolved in 0.1N hydrochloric acid or suspended in 0.5% sodium carboxymethyl cellulose solution. The solution or suspension was administered into stomach of monkey (two monkeys) with cathetel. After the administration of test compounds, the blood was collected from the lower limbs vein at a fixed interval with a syringe treated with heparin. The collected blood was centrifuged at 3,000 r.p.m. for 10 minutes to separate the plasma. The concentration of the test compound was measured by a thin layer cup method (a bio-assay), wherein Bacillus subtilis ATCC 6633 was used as a bacteria for determination. Based on a standard curve, the concentration of test compound in plasma was calculated.

6,8-Difluoro-1-(4-hydroxy-2-fluorophenyl)-7-(1-piperazinyl)-1,4-dihydro-4-oxoquinoline-3-carboxylic acid [Example 5]
minimum inhibitory concentration (MIC) ([1]; 1 × 10^6 cells/ml): 0.097
minimum inhibitory concentration (MIC) ([1]; 1 × 10^8 cells/ml): 0.097
minimum inhibitory concentration (MIC) ([2]; 1 × 10^6 cells/ml): 0.39
minimum inhibitory concentration (MIC) ([2]; 1 × 10^8 cells/ml): 0.781
minimum inhibitory concentration (MIC) ([3]; 1 × 10^6 cells/ml): 0.195
minimum inhibitory concentration (MIC) ([3]; 1 × 10^8 cells/ml): 0.39
minimum inhibitory concentration (MIC) ([4]; 1 × 10^6 cells/ml): < 0.048
minimum inhibitory concentration (MIC) ([4]; 1 × 10^8 cells/ml): 0.097
minimum inhibitory concentration (MIC) ([5]; 1 × 10^6 cells/ml): < 0.048
minimum inhibitory concentration (MIC) ([5]; 1 × 10^8 cells/ml): 0.097
minimum inhibitory concentration (MIC) ([6]; 1 × 10^6 cells/ml): 0.097
minimum inhibitory concentration (MIC) ([6]; 1 × 10^8 cells/ml): 0.097
minimum inhibitory concentration (MIC) ([7]; 1 × 10^6 cells/ml): 1.56
minimum inhibitory concentration (MIC) ([7]; 1 × 10^8 cells/ml): 3.12
minimum inhibitory concentration (MIC) ([8]; 1 × 10^6 cells/ml): 0.781
minimum inhibitory concentration (MIC) ([8]; 1 × 10^8 cells/ml): 1.56
minimum inhibitory concentration (MIC) ([9]; 1 × 10^6 cells/ml): 1.56
minimum inhibitory concentration (MIC) ([9]; 1 × 10^8 cells/ml): 3.12
minimum inhibitory concentration (MIC) ([10]; 1 × 10^6 cells/ml): 1.56
minimum inhibitory concentration (MIC) ([10]; 1 × 10^8 cells/ml): 1.56
minimum inhibitory concentration (MIC) ([11]; 1 × 10^6 cells/ml): 0.781
minimum inhibitory concentration (MIC) ([11]; 1 × 10^8 cells/ml): 0.781
minimum inhibitory concentration (MIC) ([12]; 1 × 10^6 cells/ml): 0.781
minimum inhibitory concentration (MIC) ([12]; 1 × 10^8 cells/ml): 1.56

CN1CCN(c2cc3c(cc2F)c(=O)c(C(=O)O)cn3-c2ccc(F)cc2)CC1 [A]
minimum inhibitory concentration (MIC) ([1]; 1 × 10^6 cells/ml): 0.195
minimum inhibitory concentration (MIC) ([1]; 1 × 10^8 cells/ml): 0.39
minimum inhibitory concentration (MIC) ([13]; 1 × 10^6 cells/ml): 3.12
minimum inhibitory concentration (MIC) ([13]; 1 × 10^8 cells/ml): 6.25
minimum inhibitory concentration (MIC) ([2]; 1 × 10^6 cells/ml): 0.39
minimum inhibitory concentration (MIC) ([2]; 1 × 10^8 cells/ml): 0.39
minimum inhibitory concentration (MIC) ([3]; 1 × 10^6 cells/ml): 0.097
minimum inhibitory concentration (MIC) ([3]; 1 × 10^8 cells/ml): 0.195
minimum inhibitory concentration (MIC) ([4]; 1 × 10^6 cells/ml): 0.195
minimum inhibitory concentration (MIC) ([4]; 1 × 10^8 cells/ml): 0.195
minimum inhibitory concentration (MIC) ([5]; 1 × 10^6 cells/ml): 0.097
minimum inhibitory concentration (MIC) ([5]; 1 × 10^8 cells/ml): 0.195
minimum inhibitory concentration (MIC) ([6]; 1 × 10^6 cells/ml): 0.195
minimum inhibitory concentration (MIC) ([6]; 1 × 10^8 cells/ml): 0.195
minimum inhibitory concentration (MIC) ([7]; 1 × 10^6 cells/ml): 3.12
minimum inhibitory concentration (MIC) ([7]; 1 × 10^8 cells/ml): 3.12
minimum inhibitory concentration (MIC) ([8]; 1 × 10^6 cells/ml): 0.78
minimum inhibitory concentration (MIC) ([8]; 1 × 10^8 cells/ml): 0.78
minimum inhibitory concentration (MIC) ([9]; 1 × 10^6 cells/ml): 3.12
minimum inhibitory concentration (MIC) ([9]; 1 × 10^8 cells/ml): 3.12
minimum inhibitory concentration (MIC) ([10]; 1 × 10^6 cells/ml): 3.12
minimum inhibitory concentration (MIC) ([10]; 1 × 10^8 cells/ml): 3.12
minimum inhibitory concentration (MIC) ([11]; 1 × 10^6 cells/ml): 0.78
minimum inhibitory concentration (MIC) ([11]; 1 × 10^8 cells/ml): 3.12

O=C(O)c1cn(-c2ccc(F)cc2)c2cc(N3CCNCC3)c(F)cc2c1=O [B]
minimum inhibitory concentration (MIC) ([1]; 1 × 10^6 cells/ml): 0.195
minimum inhibitory concentration (MIC) ([1]; 1 × 10^8 cells/ml): 0.39
minimum inhibitory concentration (MIC) ([13]; 1 × 10^6 cells/ml): 3.12
minimum inhibitory concentration (MIC) ([13]; 1 × 10^8 cells/ml): 6.25
minimum inhibitory concentration (MIC) ([2]; 1 × 10^6 cells/ml): 0.195
minimum inhibitory concentration (MIC) ([2]; 1 × 10^8 cells/ml): 0.39
minimum inhibitory concentration (MIC) ([3]; 1 × 10^6 cells/ml): 0.097
minimum inhibitory concentration (MIC) ([3]; 1 × 10^8 cells/ml): 0.195
minimum inhibitory concentration (MIC) ([4]; 1 × 10^6 cells/ml): < 0.048
minimum inhibitory concentration (MIC) ([4]; 1 × 10^8 cells/ml): 0.097
minimum inhibitory concentration (MIC) ([5]; 1 × 10^6 cells/ml): < 0.048
minimum inhibitory concentration (MIC) ([5]; 1 × 10^8 cells/ml): 0.097
minimum inhibitory concentration (MIC) ([6]; 1 × 10^6 cells/ml): < 0.048
minimum inhibitory concentration (MIC) ([6]; 1 × 10^8 cells/ml): 0.097
minimum inhibitory concentration (MIC) ([7]; 1 × 10^6 cells/ml): 0.78
minimum inhibitory concentration (MIC) ([7]; 1 × 10^8 cells/ml): 0.78
minimum inhibitory concentration (MIC) ([8]; 1 × 10^6 cells/ml): 0.195
minimum inhibitory concentration (MIC) ([8]; 1 × 10^8 cells/ml): 0.195
minimum inhibitory concentration (MIC) ([9]; 1 × 10^6 cells/ml): 0.78
minimum inhibitory concentration (MIC) ([9]; 1 × 10^8 cells/ml): 1.56
minimum inhibitory concentration (MIC) ([10]; 1 × 10^6 cells/ml): 0.78
minimum inhibitory concentration (MIC) ([10]; 1 × 10^8 cells/ml): 0.78
minimum inhibitory concentration (MIC) ([11]; 1 × 10^6 cells/ml): 0.195
minimum inhibitory concentration (MIC) ([11]; 1 × 10^8 cells/ml): 0.39

CN1CCN(c2cc3c(cc2F)c(=O)c(C(=O)O)cn3-c2ccc(O)cc2)CC1 [C]
minimum inhibitory concentration (MIC) ([1]; 1 × 10^6 cells/ml): < 0.048
minimum inhibitory concentration (MIC) ([1]; 1 × 10^8 cells/ml): 0.097
minimum inhibitory concentration (MIC) ([13]; 1 × 10^6 cells/ml): 0.78
minimum inhibitory concentration (MIC) ([13]; 1 × 10^8 cells/ml): 1.56
minimum inhibitory concentration (MIC) ([2]; 1 × 10^6 cells/ml): 0.195
minimum inhibitory concentration (MIC) ([2]; 1 × 10^8 cells/ml): 0.39
minimum inhibitory concentration (MIC) ([3]; 1 × 10^6 cells/ml): 0.097
minimum inhibitory concentration (MIC) ([3]; 1 × 10^8 cells/ml): 0.097
minimum inhibitory concentration (MIC) ([4]; 1 × 10^6 cells/ml): 0.097
minimum inhibitory concentration (MIC) ([4]; 1 × 10^8 cells/ml): 0.097
minimum inhibitory concentration (MIC) ([5]; 1 × 10^6 cells/ml): < 0.048
minimum inhibitory concentration (MIC) ([5]; 1 × 10^8 cells/ml): 0.097
minimum inhibitory concentration (MIC) ([6]; 1 × 10^6 cells/ml): < 0.048
minimum inhibitory concentration (MIC) ([6]; 1 × 10^8 cells/ml): 0.097
minimum inhibitory concentration (MIC) ([7]; 1 × 10^6 cells/ml): 0.39
minimum inhibitory concentration (MIC) ([7]; 1 × 10^8 cells/ml): 0.78
minimum inhibitory concentration (MIC) ([8]; 1 × 10^6 cells/ml): 0.39
minimum inhibitory concentration (MIC) ([8]; 1 × 10^8 cells/ml): 0.39
minimum inhibitory concentration (MIC) ([9]; 1 × 10^6 cells/ml): 0.78
minimum inhibitory concentration (MIC) ([9]; 1 × 10^8 cells/ml): 1.56
minimum inhibitory concentration (MIC) ([10]; 1 × 10^6 cells/ml): 0.39
minimum inhibitory concentration (MIC) ([10]; 1 × 10^8 cells/ml): 0.78
minimum inhibitory concentration (MIC) ([11]; 1 × 10^6 cells/ml): 0.195
minimum inhibitory concentration (MIC) ([11]; 1 × 10^8 cells/ml): 0.39
concentration at 0.5 h ([14]; Run 1, 0.5 hour, read-out: Amount of test compd. in plasma): 360 ng/mL
concentration at 1 h ([14]; Run 1, 1 hour, read-out: Amount of test compd. in plasma): 490 ng/mL
concentration at 2 h ([14]; Run 1, 2 hour, read-out: Amount of test compd. in plasma): 650 ng/mL
concentration at 4 h ([14]; Run 1, 4 hour, read-out: Amount of test compd. in plasma): 960 ng/mL
concentration at 7 h ([14]; Run 1, 7 hour, read-out: Amount of test compd. in plasma): 950 ng/mL
concentration at 24 h ([14]; Run 1, 24 hour, read-out: Amount of test compd. in plasma): 900 ng/mL
concentration at 0.5 h ([14]; Run 2, 0.5 hour, read-out: Amount of test compd. in plasma): < 390 ng/mL
concentration at 1 h ([14]; Run 2, 1 hour, read-out: Amount of test compd. in plasma): < 390 ng/mL
concentration at 2 h ([14]; Run 2, 2 hour, read-out: Amount of test compd. in plasma): < 390 ng/mL
concentration at 4 h ([14]; Run 2, 4 hour, read-out: Amount of test compd. in plasma): < 390 ng/mL
concentration at 7 h ([14]; Run 2, 7 hour, read-out: Amount of test compd. in plasma): < 390 ng/mL
concentration at 24 h ([14]; Run 2, 24 hour, read-out: Amount of test compd. in plasma): < 390 ng/mL
concentration at 0.5 h ([14]; average of two runs, 0.5 hour, read-out: Amount of test compd. in plasma, Average): < 280 ng/mL
concentration at 1 h ([14]; average of two runs, 1 hour, read-out: Amount of test compd. in plasma, Average): < 350 ng/mL
concentration at 2 h ([14]; average of two runs, 2 hour, read-out: Amount of test compd. in plasma, Average): < 430 ng/mL
concentration at 4 h ([14]; average of two runs, 4 hour, read-out: Amount of test compd. in plasma, Average): < 580 ng/mL
concentration at 7 h ([14]; average of two runs, 7 hour, read-out: Amount of test compd. in plasma, Average): < 580 ng/mL
concentration at 24 h ([14]; average of two runs, 24 hour, read-out: Amount of test compd. in plasma, Average): < 550 ng/mL
